Results as given in patent US11939361B2, “Compositions of peptide inhibitors of Interleukin-23 receptor” (Janssen Pharmaceutica NV, priority 2020, dated 2024).
Several values for one entry are separate records, joined by “and”; a condition that tells them apart may be missing. Equal entries are not always repeated. Where two headings read alike, the source gives them in different places.

Key:
clinical = conditions: human, in vivo
[1] = tested on: rat trinitrobenzenesulfonic acid (TNBS)-induced colitis model; experiment: Rat TNBS-induced colitis model, efficacy; format: in vivo, Sprague-Dawley rats
From the text: Intracolonic TNBS instillation in Sprague-Dawley rats induces colonic inflammation driven in part by IL-23/IL-23R signaling (Cheng X, Taranath R, Mattheakis L, Bhandari A, Liu D. The biomarker profile of PTG-200, an oral peptide antagonist of IL-23 receptor, tracks with efficacy in a preclinical model of IBD. J Crohns Colitis. AGA Abstracts, 2017). The TNBS rat model therefore provides a measure of the local GI effects of SEQ ID NO: 1 on IL-23/IL-23R signaling.
The peptide of SEQ ID NO: 1 was evaluated in the rat TNBS model with oral dosing only, three times a day (0.03, 0.1, 0.3, 1, 3, 10, mg/kg/day), in three independent rat TNBS experiments. In all studies, the peptide of SEQ ID NO: 1 was dosed starting 2 days prior to TNBS induction through day 6, with euthanasia scheduled on day 7.
Disease severity resulting from TNBS can be assessed by qualitative scoring of the formation of strictures, adhesions, ulceration, and increase in wall thickness as described previously. […] Based on this qualitative scoring, the peptide of SEQ ID NO: 1 at 0.1 mg/kg/day was considered to be the minimally efficacious dose for colonic score (FIG. 13).
Data from 3 different studies were combined (represented by shapes of the symbols at each dose level: study 1 (Δ), study 2 (♦), study 3 (∘); box at interquartile range, bars at minima/maxima). The colons were scored on the following parameters: adhesion (0-2), stricture (0-3), ulcer (0-5), and wall thickness (0-2) for a total sum component score range of 0-12. The colon score was reduced by treatment with the peptide of SEQ ID NO: 1 at doses of […] (ns=not significant, * p<0.05, *** p<0.001, **** p<0.0001).

[2] = tested on: IL-23 induced IFNγ production; experiment: Ex vivo whole blood IL-23-induced IFNγ production assay, FIH MAD cohorts; format: in vivo
Protocol: An ex vivo whole blood IL-23 induced IFNγ assay was used to evaluate the systemic pharmacodynamic activity of the orally administered peptide of SEQ ID NO: 1 in the first-in-human study. […] On Days 1 and 10, when the assay was performed, subjects received their dose of placebo or peptide of SEQ ID NO: 1 following an overnight fast of approximately 10 hours and remained fasted for approximately 4 hours following dosing. After oral dosing on days 1 and 10, whole blood from the subjects was stimulated ex vivo with either IL-2 (10 ng/mL) and IL-18 (20 ng/mL) or IL-2 (10 ng/mL), IL-18 (20 ng/mL), and IL-23 (0.5 ng/mL) in TruCulture™ tubes (Rules Based Medicine, Q^2 solutions company) for stimulation of IFNγ production. The production of IFNγ is expected to be suppressed if IL-23R signaling is inhibited. Therefore, lower IFNγ production in the assay is associated with sufficient exposure to achieve systemic pharmacodynamic (PD) activity of orally dosed peptide of SEQ ID NO: 1.
Whole blood was collected in TruCulture™ tubes according to manufacturer instructions, the tubes were incubated at 37° C. in a block thermostat for 24 hours (±1 hour). Following incubation at 37° C., supernatants were harvested according to TruCultube™ tube manufacturer instructions (Rules Based Medicine, Q^2 solutions company). An ELISA assay was used to quantify the levels of IFNg in the supernatants.

[3] = tested on: IL-23-induced IL-17A secretion; experiment: In vitro rat whole blood assay of IL-23-induced IL-17A secretion; format: cell-based
[4] = Colon and colonic content concentrations in rat TNBS colitis model (LC-MS/MS); format: in vivo, Sprague Dawley rats; conditions: Sprague Dawley, po
Protocol: […] In all studies, the peptide of SEQ ID NO: 1 was dosed starting 2 days prior to TNBS induction through day 6, with euthanasia scheduled on day 7.
At the end of each study, colonic content and colon tissue samples were collected from each animal and analyzed for drug concentrations by LC-MS/MS.

[5] = human, 25 mg, 100 mg, 300 mg and 1000 mg cohorts, oral once a day

CC(=O)NCCCC[C@@H]1NC(=O)[C@H](Cc2c[nH]c3c(C)cccc23)NC(=O)[C@H]([C@@H](C)O)NC(=O)[C@H](CC(N)=O)NC(=O)[C@@H](NC(C)=O)C(C)(C)SSC(C)(C)[C@@H](C(=O)N[C@@H](Cc2ccc(OCCN)cc2)C(=O)N[C@@H](Cc2ccc3ccccc3c2)C(=O)NC2(C(=O)N[C@@H](CCC(=O)O)C(=O)N[C@@H](CC(N)=O)C(=O)N[C@@H](Cc3cccnc3)C(=O)N(C)CC(N)=O)CCOCC2)NC1=O [SEQ ID NO: 1, Ac-[Pen]*—N-T-[W(7-Me)]-[Lys(Ac)]-[Pen]*-Phe[4-(2-aminoethoxy)]-[2-Nal]-[THP]-E-N-[3-Pal]-Sarc-NH2]
half-life (clinical): 600 to 720 min
AUC (clinical; po, 10 mg): 1.56 ng·h/mL
AUC (clinical; po, 25 mg): 6.47 ng·h/mL
AUC (clinical; po, 100 mg): 20.8 ng·h/mL
AUC (clinical; po, 300 mg): 51 ng·h/mL
half-life (clinical; po, 300 mg): 557 min
AUC (clinical; po, 1000 mg): 141 ng·h/mL
Cmax (clinical; po, 1000 mg): 8.3 ng/mL
Tmax (clinical; po, 1000 mg): 4.5 h
TNBS-induced weight loss ([1]; 0.03, 0.1, 0.3, 1, 3, and 10 mg/kg/day, all 3 studies): prevented and reversed
minimally efficacious dose, body weight ([1]; day 7 as the study endpoint): 0.3 mg/kg/day
minimal efficacious dose, TNBS-induced colitis model (summary) ([1]; rat, in vivo): 0.3 mg/kg/day
minimally efficacious dose, colonic score ([1]; rat, in vivo): 0.1 mg/kg/day
inhibition of IL-23 stimulated IFNγ production in human whole blood ([2]; 10-1000 mg oral once a day, Day 1 and Day 10): dose dependent inhibition
maximum inhibition of IL-23 induced IFNγ production (mean systemic PD activity) [2, 5]: ~100%
time for which >50% inhibition of IFNγ production was maintained [2, 5]: ≥ 8 h
IC50 ([3]; read-out: IC50 at 4 ng/mL IL-23 stimulation, individual vehicle-dosed rats, plus 4 ng/mL IL-1β, listed as peptide of SEQ ID NO: 1): 0.012 nM and 0.027 nM and 0.045 nM and 0.013 nM and 0.06 nM and 0.066 nM
IC50 ([3]; read-out: IC50 at 4 ng/mL IL-23 stimulation, pooled blood (n = 6 naïve rats), plus 4 ng/mL IL-1β, listed as peptide of SEQ ID NO: 1): 0.1 nM and 0.11 nM
IC50 ([3]; read-out: IC50 at 20 ng/mL IL-23 stimulation, individual vehicle-dosed rats, listed as peptide of SEQ ID NO: 1): 0.24 nM and 0.16 nM and 0.22 nM and 0.23 nM and 0.34 nM and 0.29 nM
IC50 ([3]; read-out: Mean IC50 at 4 ng/mL IL-23 stimulation, in vitro rat whole blood, mean of all experiments): 0.054 ± 0.034 nM
IC50 ([3]; read-out: Mean IC50 at 20 ng/mL IL-23 stimulation, in vitro rat whole blood, n=6 rats): 0.25 ± 0.062 nM
tissue level at time at 168 h ([4]; colon content, 0.033 mg/kg, Study 3, 0.033 mg/kg TID oral, total daily dose 0.1 mg/kg, read-out: Mean concentration in Colon content): 567 ng/g
tissue level at time at 168 h ([4]; colon content, 0.1 mg/kg, Study 2, 0.1 mg/kg TID oral, total daily dose 0.3 mg/kg, read-out: Mean concentration in Colon content): 1990 ng/g
tissue level at time at 168 h ([4]; colon content, 0.1 mg/kg, Study 3, 0.1 mg/kg TID oral, total daily dose 0.3 mg/kg, read-out: Mean concentration in Colon content): 3180 ng/g
tissue level at time at 168 h ([4]; colon content, 0.33 mg/kg, Study 2, 0.33 mg/kg TID oral, total daily dose 1 mg/kg, read-out: Mean concentration in Colon content): 7440 ng/g
tissue level at time at 168 h ([4]; colon content, 0.33 mg/kg, Study 3, 0.33 mg/kg TID oral, total daily dose 1 mg/kg, read-out: Mean concentration in Colon content): 6050 ng/g
tissue level at time at 168 h ([4]; colon content, 0.5 mg/kg, Study 2, 0.5 mg/kg BID oral, total daily dose 1 mg/kg, read-out: Mean concentration in Colon content): 11200 ng/g
tissue level at time at 168 h ([4]; colon content, 1 mg/kg, Study 2, 1 mg/kg QD oral, total daily dose 1 mg/kg, read-out: Mean concentration in Colon content): 11700 ng/g
tissue level at time at 168 h ([4]; colon content, 1 mg/kg, Study 2, 1 mg/kg TID oral, total daily dose 3 mg/kg, read-out: Mean concentration in Colon content): 22200 ng/g
tissue level at time at 168 h ([4]; colon content, 1 mg/kg, Study 3, 1 mg/kg TID oral, total daily dose 3 mg/kg, read-out: Mean concentration in Colon content): 20800 ng/g
tissue level at time at 168 h ([4]; colon content, 3.3 mg/kg, Study 2, 3.3 mg/kg TID oral, total daily dose 10 mg/kg, read-out: Mean concentration in Colon content): 73500 ng/g
tissue level at time at 168 h ([4]; colon, 0.1 mg/kg, Study 3, 0.1 mg/kg TID oral, total daily dose 0.3 mg/kg, read-out: Mean concentration in Colon): 44.4 ng/g
tissue level at time at 168 h ([4]; colon, 0.33 mg/kg, Study 3, 0.33 mg/kg TID oral, total daily dose 1 mg/kg, read-out: Mean concentration in Colon): 158 ng/g
tissue level at time at 168 h ([4]; colon, 1 mg/kg, Study 3, 1 mg/kg TID oral, total daily dose 3 mg/kg, read-out: Mean concentration in Colon): 509 ng/g
